Test systems include A498 renal; A549 NSCLC; MCF7 breast; NCI-H226 lung; OVCAR-4 ovarian; OVCAR-5 ovarian; SF-268 CNS; SK-OV-3 ovarian; SNB-19 CNS; MALME-3M melanoma.
What all share (assay): NCI tumour cell line growth inhibition, 48 h

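Values below derive from 48-hour exposures of cells grown in 96-well plates, with endpoints linearly interpolated between the two concentrations bracketing the appropriate inhibition level. TGI is the concentration that stops growth completely.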 Where only a bound is given, the exact number is not on record here.

Consider `Cc1ccccc1-n1c(=O)c2ncn(CCCl)c2n(-c2ccccc2C)c1=S`, for which the TGI with A498 renal, with A549 NSCLC, with MCF7 breast, in the test on NCI-H226 lung, in the test with OVCAR-4 ovarian and in the test with OVCAR-5 ovarian was greater than 100 µM in each case. The TGI in the test on SF-268 CNS and with SK-OV-3 ovarian was greater than 100 µM each time.
As for `CCC[C@@H](O)C[C@@H]1CCC[C@H](C[C@@H](O)CC)N1C`, the TGI with A498 renal, in the test with A549 NSCLC, in the test on MCF7 breast, with NCI-H226 lung, with OVCAR-4 ovarian and with OVCAR-5 ovarian was greater than 100 µM in each case. For the same compound, the TGI in the test with SF-268 CNS is 45.1 µM; in the test on SK-OV-3 ovarian it was greater than 100 µM; in the test on SNB-19 CNS it was greater than 100 µM.
As for `O=C1C(=Cc2ccc(O)cc2)N=C(c2ccccc2)N1n1c(-c2ccccc2)nc2ccccc2c1=O`, the TGI in the test on A549 NSCLC, in the test on MALME-3M melanoma, with MCF7 breast, in the test on NCI-H226 lung, with SF-268 CNS and with SK-OV-3 ovarian was greater than 100 µM each time. The same compound yielded a TGI in the test with SNB-19 CNS greater than 100 µM.
For the compound `CC1=CC2C(O1)C1C(=O)C=CC(=O)C1=CC2[N+](=O)[O-]` (centres undefined), the TGI with A498 renal was 40.6 µM; in the test on A549 NSCLC, 43.5 µM; in the test on MCF7 breast, 14.3 µM; in the test on NCI-H226 lung it was greater than 100 µM; in the test with OVCAR-4 ovarian, 31.6 µM; in the test on OVCAR-5 ovarian, 63.3 µM. Also, the TGI with SF-268 CNS is 29.3 µM; in the test on SK-OV-3 ovarian, greater than 100 µM; in the test with SNB-19 CNS, greater than 72.4 µM.
`COc1cc(/C=C2\S/C(=N/Nc3nc(-c4ccc(Br)cc4)cs3)NC2=O)cc(OC)c1OC`: the TGI with A549 NSCLC was 56.7 µM; with MCF7 breast, greater than 100 µM; in the test on NCI-H226 lung, 11.7 µM; in the test on OVCAR-4 ovarian, 85 µM; in the test with OVCAR-5 ovarian it was 83.1 µM; in the test with SF-268 CNS, greater than 100 µM. The TGI with SK-OV-3 ovarian stood at 34.7 µM; in the test on SNB-19 CNS, 67.7 µM.
For the compound `CC[C@@]1(C[C@H]2C[C@@]3(C(=O)OC)c4[nH]c5ccccc5c4CCN3C2=O)COC2(CCCCC2)O1`, the TGI in the test with A549 NSCLC was greater than 100 µM; in the test on MALME-3M melanoma, greater than 100 µM; in the test with MCF7 breast it was 91.4 µM; with OVCAR-4 ovarian it was greater than 100 µM; with OVCAR-5 ovarian it was greater than 100 µM; with SF-268 CNS, greater than 100 µM. The TGI with SK-OV-3 ovarian and in the test on SNB-19 CNS was greater than 100 µM throughout.
With `COc1ccc(/C=C2\CCC(C)C3=C2NC(=S)NC3c2ccc(OC)c(OC)c2)cc1OC` (centres undefined), the TGI in the test on A498 renal is greater than 31.6 µM; in the test with A549 NSCLC it was greater than 100 µM; in the test on MCF7 breast, greater than 31.6 µM; in the test on NCI-H226 lung it was greater than 100 µM; in the test with OVCAR-4 ovarian it was greater than 100 µM; in the test on OVCAR-5 ovarian, greater than 31.6 µM. Further, the TGI with SF-268 CNS, in the test with SK-OV-3 ovarian and in the test on SNB-19 CNS was greater than 31.6 µM each time.
In the case of `COc1ccc(N2C(=O)C3c4[nH]c5ccccc5c4C4CCC(C(C)(C)C)CC4C3C2=O)c(C)c1` (centres undefined), the TGI with A549 NSCLC, with MCF7 breast, in the test with NCI-H226 lung, in the test with OVCAR-4 ovarian, with SF-268 CNS and with SK-OV-3 ovarian was greater than 100 µM throughout. In the test on SNB-19 CNS, the TGI was greater than 100 µM.
With `c1ccc(N=C2SC3=Nc4cccc5cccc(c45)N3C2=Nc2ccccc2)cc1`, the TGI with A498 renal, with MALME-3M melanoma, in the test on MCF7 breast, with NCI-H226 lung, in the test on OVCAR-5 ovarian and with SK-OV-3 ovarian was greater than 100 µM each time. In the test with SNB-19 CNS, the TGI was greater than 100 µM.
On to `Cc1ccc(SCC(CSCCO)OCn2cnc3c2NC(N)=NC32OCCO2)cc1` (centres undefined), for which the TGI with A498 renal, in the test with A549 NSCLC, in the test on MALME-3M melanoma, in the test with MCF7 breast, in the test on OVCAR-4 ovarian and in the test on OVCAR-5 ovarian was greater than 100 µM each time. In addition, the TGI in the test with SF-268 CNS, in the test on SK-OV-3 ovarian and in the test with SNB-19 CNS was greater than 100 µM each time.
For `Oc1ccc(-c2nc(-c3cccnc3)c(-c3ccc(F)cc3)[nH]2)cc1`, the TGI in the test with A549 NSCLC came out at 65 µM; with MALME-3M melanoma, 32.6 µM; in the test with MCF7 breast it was 32.7 µM; with NCI-H226 lung it was 46.8 µM; with OVCAR-4 ovarian it was 52.7 µM; with OVCAR-5 ovarian it was 68 µM. In addition, the TGI stood at 49.8 µM with SF-268 CNS, 57.1 µM in the test with SK-OV-3 ovarian and 60.8 µM in the test with SNB-19 CNS.
As to `CC1(C)N=C(/C(Cl)=[N+](/[O-])C(=O)c2ccc(F)cc2)C(C)(C)N1O`, the TGI is greater than 100 µM in the test with A549 NSCLC; 30.8 µM in the test with MALME-3M melanoma; 44 µM in the test with MCF7 breast; 42.2 µM in the test with NCI-H226 lung; 32.2 µM in the test on OVCAR-4 ovarian; 36.1 µM in the test with OVCAR-5 ovarian. Further, the TGI in the test with SF-268 CNS was 33.6 µM; with SK-OV-3 ovarian, 47 µM; in the test with SNB-19 CNS, greater than 100 µM.
As to `O=C(NNC(=O)c1ccccc1SSc1ccccc1C(=O)NNC(=O)c1ccccc1S)c1ccccc1S`, the TGI in the test with A549 NSCLC is greater than 100 µM; in the test with MALME-3M melanoma, greater than 81.2 µM; in the test on MCF7 breast, greater than 100 µM; in the test with NCI-H226 lung it was greater than 100 µM; with OVCAR-4 ovarian, greater than 100 µM; with OVCAR-5 ovarian, greater than 100 µM. Besides, the TGI is greater than 52.5 µM with SF-268 CNS, greater than 100 µM in the test on SK-OV-3 ovarian and greater than 100 µM in the test with SNB-19 CNS.
For the compound `O=C(CCC(=O)c1ccc(Cl)cc1)NO`, the TGI in the test with A498 renal, in the test on A549 NSCLC, with MCF7 breast, in the test with NCI-H226 lung, in the test with OVCAR-4 ovarian and in the test on OVCAR-5 ovarian was greater than 100 µM each time. The TGI in the test on SF-268 CNS, in the test on SK-OV-3 ovarian and with SNB-19 CNS was greater than 100 µM each time.
Take `FC(F)(F)c1cc(Cl)cnc1N/N=C(/c1ccccc1)c1ccccn1`: the TGI came out at 22.9 µM in the test on A549 NSCLC; 17 µM with MCF7 breast; 8.03 µM in the test with NCI-H226 lung; 29.4 µM in the test on OVCAR-4 ovarian; 33.4 µM in the test with OVCAR-5 ovarian; 11.3 µM with SF-268 CNS. The results for the TGI in the test with SK-OV-3 ovarian and in the test on SNB-19 CNS were 9.9 µM and greater than 100 µM, respectively.
For the compound `Cc1cn(C2CC(N(O)C(N)=O)C(CO)O2)c(=O)[nH]c1=O` (centres undefined), the TGI with A498 renal, in the test on A549 NSCLC, in the test with MALME-3M melanoma, in the test with MCF7 breast, with OVCAR-4 ovarian and in the test on OVCAR-5 ovarian was greater than 100 µM each time. Further, the TGI with SF-268 CNS, in the test on SK-OV-3 ovarian and in the test with SNB-19 CNS was greater than 100 µM throughout.

For the origin of these results see PubChem BioAssay (NCI).
